Here are results for twelve compounds from patent publication US20220370440A1 (Lead Discovery Center GmbH, priority 2018, published 2022).

Bounds are passed on as bounds.

Series [1] has as its target EGFR Exon 20 INSNPH Ba/F3 (Homo sapiens, UniProt P00533, DUP771-773, cells depend on it). The series is described as follows: EGFR Exon 20 INSNPH Ba/F3 CellTiter-Glo. It counts as cell-based. Particulars: CellTiter-Glo, 72 h, read-out: EGFR Exon 20 INSNPH Ba/F3 CTG IC50. In outline:
(§1)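 ATP-based luminescence (CellTiter-Glo) after 72 h compound exposure gives viability; IC50 from dose-response fit. Cells seeded 24 h ahead at 37 °C, 5% CO2. Controls: DMSO vehicle and 10 μM staurosporine; runs kept only if Z′ ≥0.5.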

Series [2] can be described thus: Metabolic stability in mouse liver microsomes without cofactor NADPH. Particulars: 3 μM test compound, mouse liver microsomes, without NADPH, 50 min, 37° C., LC-MS/MS. It counts as in vitro ADME. In outline:
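Cofactor-free incubation: no NADPH added to mouse liver microsomes, with compound at 3 μM and 37° C. Remaining parent was quantified by LC-MS/MS at time points up to 50 minutes to track depletion.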
On the technique in general: Liver microsomes are vesicles of endoplasmic reticulum, rich in cytochrome P450 enzymes.

For series [3], the target named is EGFR wt (Homo sapiens, UniProt P00533). The series is described as follows: EGFR wt Lance assay. It counts as biochemical. The procedure:
(§2) Inhibition is indicated as […] [nM] (“−”=not measured). Compounds having an activity designated as “A” provided an IC50≤100 nM; compounds having an activity designated as “B” provided an 100 nM<IC50≤500 nM; compounds having an activity designated as “C” provided an 500 nM<IC50≤1000 nM; compounds having an activity designated as “D” provided an 1000 nM<IC50≤100000 nM; and compounds having an activity designated as “E” provided an IC50>10000 nM.

Series [4] deals with A431. The series is described as follows: A431 CellTiter-Glo. As to conditions: Homo sapiens, A-431; 72 h compound incubation; read-out: A431 CTG IC50. Type of series: cell-based. In outline:
(§3)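 ATP-based luminescent viability read after 72 h compound exposure (DMSO vehicle, range of concentrations), cells plated 24 h beforehand at 37° C, 5% CO2. IC50 by dose-response fitting; 10 μM Staurosporine and DMSO controls, Z′-factor ≥0.5 required.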
(In general: ATP-based viability assays read luminescence as a measure of living cells.)

In series [5] the target is Her2 Exon 20 INSYVMA Ba/F3 (Homo sapiens, UniProt P04626, DUP772-775, cells depend on it). Kind of series: Her2 Exon 20 INSYVMA Ba/F3 CellTiter-Glo. It counts as cell-based. As to conditions: CellTiter-Glo, 72 h, read-out: Her2 Exon 20 INSYVMA Ba/F3 CTG IC50. In outline: as §1
Chain of Her2 Exon 20 INSYVMA Ba/F3 (P04626 with tags, fused parts or gaps DUP772-775): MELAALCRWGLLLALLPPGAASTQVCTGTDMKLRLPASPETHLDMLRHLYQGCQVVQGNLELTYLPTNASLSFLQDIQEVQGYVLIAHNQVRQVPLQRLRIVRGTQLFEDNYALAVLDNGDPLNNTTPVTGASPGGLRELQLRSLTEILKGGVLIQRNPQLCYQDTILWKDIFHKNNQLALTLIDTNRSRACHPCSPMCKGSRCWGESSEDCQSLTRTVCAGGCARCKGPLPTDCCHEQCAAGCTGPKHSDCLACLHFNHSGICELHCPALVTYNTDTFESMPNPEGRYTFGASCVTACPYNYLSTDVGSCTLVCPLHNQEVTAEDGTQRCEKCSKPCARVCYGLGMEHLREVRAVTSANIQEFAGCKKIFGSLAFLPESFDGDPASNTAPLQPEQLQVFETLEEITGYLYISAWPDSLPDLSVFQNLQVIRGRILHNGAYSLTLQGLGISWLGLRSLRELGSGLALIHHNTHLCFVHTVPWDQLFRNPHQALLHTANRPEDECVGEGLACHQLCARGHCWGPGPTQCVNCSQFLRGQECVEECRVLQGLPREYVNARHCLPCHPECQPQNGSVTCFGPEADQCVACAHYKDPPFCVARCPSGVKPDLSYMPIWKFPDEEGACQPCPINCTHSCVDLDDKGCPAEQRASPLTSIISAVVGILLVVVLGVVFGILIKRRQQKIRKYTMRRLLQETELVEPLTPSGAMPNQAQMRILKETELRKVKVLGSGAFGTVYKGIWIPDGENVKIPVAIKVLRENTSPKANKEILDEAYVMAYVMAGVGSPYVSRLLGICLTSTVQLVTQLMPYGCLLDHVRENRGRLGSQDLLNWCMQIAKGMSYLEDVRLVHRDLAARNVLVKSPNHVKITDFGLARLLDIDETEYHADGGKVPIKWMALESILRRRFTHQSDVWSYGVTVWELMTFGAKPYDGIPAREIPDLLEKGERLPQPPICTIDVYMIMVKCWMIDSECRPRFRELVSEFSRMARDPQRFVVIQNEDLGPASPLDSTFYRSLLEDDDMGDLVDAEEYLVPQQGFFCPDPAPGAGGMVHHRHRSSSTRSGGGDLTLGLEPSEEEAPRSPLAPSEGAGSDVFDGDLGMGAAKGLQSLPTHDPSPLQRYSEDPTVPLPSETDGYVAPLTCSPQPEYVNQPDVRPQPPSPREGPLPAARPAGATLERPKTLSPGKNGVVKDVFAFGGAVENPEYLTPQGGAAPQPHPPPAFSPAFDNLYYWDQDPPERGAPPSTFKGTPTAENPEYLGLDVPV
In series [6] the target is EGFR T790ML858R (Homo sapiens, UniProt P00533, L858R/T790M). The series is described as follows: EGFR T790ML858R Lance assay. It counts as biochemical. The procedure:
as §2

The target in series [7] is T1, HER2 INS YVMA (Homo sapiens, UniProt P04626, INS775YVMA).
T1 construct: purchased DPF
The series is described as follows: Lance Kinase Activity Assay, HER2 INS YVMA (Her2 Exon 20 INSYVMA Lance). Type of series: biochemical. As to conditions: biochemical Lance assay. In outline:
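IC50 was fitted to sigmoidal curves of TR-FRET signal (665 and 615 nm emission after 340 nm excitation) from an Eu anti-phospho antibody binding the phosphorylated ULight peptide. The ATP-started reaction ran 1 h at RT and was then quenched with 10 mM EDTA plus antibody for a further 1 h. Compounds were tested as 8-point, 3-fold dilutions.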

Series [8] has as its system H1975. The series is described as follows: H1975 CellTiter-Glo. It counts as cell-based. Particulars: Homo sapiens, NCI-H1975; 72 h compound incubation; read-out: H1975 CTG IC50. In outline:
as §3

Chain of EGFR wt (P00533 25-1210): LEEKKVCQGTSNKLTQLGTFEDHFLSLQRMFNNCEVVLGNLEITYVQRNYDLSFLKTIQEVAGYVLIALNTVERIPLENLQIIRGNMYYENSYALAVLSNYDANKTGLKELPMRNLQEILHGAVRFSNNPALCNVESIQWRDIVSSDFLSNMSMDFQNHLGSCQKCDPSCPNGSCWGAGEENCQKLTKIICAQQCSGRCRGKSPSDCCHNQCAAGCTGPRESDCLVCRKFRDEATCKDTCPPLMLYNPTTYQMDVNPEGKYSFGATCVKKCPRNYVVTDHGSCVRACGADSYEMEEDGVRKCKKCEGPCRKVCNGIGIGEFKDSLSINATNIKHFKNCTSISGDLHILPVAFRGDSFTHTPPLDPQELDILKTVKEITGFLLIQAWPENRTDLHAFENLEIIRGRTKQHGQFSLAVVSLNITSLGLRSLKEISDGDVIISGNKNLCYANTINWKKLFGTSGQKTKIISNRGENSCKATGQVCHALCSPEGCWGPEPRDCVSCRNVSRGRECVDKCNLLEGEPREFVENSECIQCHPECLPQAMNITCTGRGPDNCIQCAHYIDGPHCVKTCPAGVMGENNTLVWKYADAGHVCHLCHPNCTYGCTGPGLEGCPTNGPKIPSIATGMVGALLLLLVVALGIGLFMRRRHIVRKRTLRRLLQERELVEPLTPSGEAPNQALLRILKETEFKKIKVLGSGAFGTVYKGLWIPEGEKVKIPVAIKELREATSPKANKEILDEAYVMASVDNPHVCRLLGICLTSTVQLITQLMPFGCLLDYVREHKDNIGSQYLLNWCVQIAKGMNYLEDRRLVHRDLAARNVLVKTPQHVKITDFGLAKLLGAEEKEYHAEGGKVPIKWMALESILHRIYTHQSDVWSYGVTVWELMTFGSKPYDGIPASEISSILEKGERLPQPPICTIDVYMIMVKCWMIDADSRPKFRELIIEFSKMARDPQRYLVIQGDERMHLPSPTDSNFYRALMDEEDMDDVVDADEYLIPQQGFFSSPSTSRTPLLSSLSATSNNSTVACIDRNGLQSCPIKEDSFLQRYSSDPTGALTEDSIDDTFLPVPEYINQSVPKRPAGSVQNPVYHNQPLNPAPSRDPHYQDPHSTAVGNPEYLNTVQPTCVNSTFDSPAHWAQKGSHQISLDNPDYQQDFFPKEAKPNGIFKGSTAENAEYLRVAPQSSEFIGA
Chain of EGFR Exon 20 INSNPH Ba/F3 (P00533 with tags, fused parts or gaps DUP771-773): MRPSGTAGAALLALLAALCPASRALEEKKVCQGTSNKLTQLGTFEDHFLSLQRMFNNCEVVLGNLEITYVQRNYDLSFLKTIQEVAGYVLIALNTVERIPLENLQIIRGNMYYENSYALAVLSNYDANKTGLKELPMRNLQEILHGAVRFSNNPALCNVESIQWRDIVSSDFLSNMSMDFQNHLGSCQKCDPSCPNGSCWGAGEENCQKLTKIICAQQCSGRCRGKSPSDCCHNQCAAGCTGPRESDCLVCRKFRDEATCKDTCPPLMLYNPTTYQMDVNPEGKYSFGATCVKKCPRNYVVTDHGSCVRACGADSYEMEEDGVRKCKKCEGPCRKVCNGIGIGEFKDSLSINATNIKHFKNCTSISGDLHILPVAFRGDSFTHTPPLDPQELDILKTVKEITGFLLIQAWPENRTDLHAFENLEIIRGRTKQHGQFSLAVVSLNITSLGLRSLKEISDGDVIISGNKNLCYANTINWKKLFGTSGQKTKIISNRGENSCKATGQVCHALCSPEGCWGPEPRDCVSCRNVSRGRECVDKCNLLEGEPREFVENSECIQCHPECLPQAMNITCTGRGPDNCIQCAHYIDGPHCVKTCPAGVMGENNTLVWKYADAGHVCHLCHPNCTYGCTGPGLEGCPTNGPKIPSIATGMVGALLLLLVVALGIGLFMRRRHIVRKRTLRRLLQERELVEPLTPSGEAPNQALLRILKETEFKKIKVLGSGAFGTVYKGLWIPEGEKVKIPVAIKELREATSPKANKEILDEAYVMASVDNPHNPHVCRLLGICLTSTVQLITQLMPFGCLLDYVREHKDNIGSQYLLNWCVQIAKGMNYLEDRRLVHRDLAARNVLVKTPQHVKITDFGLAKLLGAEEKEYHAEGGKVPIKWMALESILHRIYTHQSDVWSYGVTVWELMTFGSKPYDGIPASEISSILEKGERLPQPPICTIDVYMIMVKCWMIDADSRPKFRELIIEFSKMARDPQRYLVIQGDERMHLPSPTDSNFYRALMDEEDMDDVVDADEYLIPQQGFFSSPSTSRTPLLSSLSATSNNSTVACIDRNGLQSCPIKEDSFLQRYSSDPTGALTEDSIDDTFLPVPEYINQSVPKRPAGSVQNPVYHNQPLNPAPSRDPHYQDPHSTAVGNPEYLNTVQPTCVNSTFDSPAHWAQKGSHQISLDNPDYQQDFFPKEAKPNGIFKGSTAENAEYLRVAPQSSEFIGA
Chain of EGFR T790ML858R (P00533 25-1210 T790M/L858R): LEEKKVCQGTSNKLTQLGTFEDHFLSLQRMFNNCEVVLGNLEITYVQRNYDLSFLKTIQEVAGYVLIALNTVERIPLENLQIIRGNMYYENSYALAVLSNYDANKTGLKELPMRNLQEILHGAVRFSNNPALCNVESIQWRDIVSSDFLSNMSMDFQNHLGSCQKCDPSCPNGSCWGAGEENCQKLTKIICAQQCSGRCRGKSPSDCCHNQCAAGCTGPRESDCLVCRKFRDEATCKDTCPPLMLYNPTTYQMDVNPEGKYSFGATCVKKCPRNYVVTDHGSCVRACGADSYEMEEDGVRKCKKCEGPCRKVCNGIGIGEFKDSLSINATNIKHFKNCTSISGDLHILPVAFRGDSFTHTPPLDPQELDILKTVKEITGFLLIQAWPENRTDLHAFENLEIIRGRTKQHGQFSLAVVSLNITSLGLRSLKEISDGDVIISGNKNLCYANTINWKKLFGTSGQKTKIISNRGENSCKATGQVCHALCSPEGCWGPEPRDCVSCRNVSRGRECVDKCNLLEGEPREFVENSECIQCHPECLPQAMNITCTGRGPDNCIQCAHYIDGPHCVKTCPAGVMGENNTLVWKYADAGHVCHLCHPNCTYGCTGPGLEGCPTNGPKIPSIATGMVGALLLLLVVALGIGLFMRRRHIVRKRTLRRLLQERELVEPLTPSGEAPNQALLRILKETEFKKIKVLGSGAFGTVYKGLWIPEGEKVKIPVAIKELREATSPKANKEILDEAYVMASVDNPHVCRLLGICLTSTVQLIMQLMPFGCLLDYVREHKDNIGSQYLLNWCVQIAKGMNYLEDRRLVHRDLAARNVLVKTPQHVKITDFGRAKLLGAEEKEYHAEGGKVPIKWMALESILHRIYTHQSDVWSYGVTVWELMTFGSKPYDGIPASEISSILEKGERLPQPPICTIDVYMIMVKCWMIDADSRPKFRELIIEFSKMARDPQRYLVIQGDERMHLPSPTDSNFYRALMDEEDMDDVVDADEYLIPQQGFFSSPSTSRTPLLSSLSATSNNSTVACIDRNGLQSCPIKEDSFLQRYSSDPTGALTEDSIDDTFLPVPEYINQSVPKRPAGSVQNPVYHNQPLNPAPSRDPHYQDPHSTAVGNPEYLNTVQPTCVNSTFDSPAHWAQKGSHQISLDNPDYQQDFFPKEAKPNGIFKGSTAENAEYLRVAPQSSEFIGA

The term IC50 denotes the point on the concentration scale where inhibition reaches its midpoint. Consider `C=CC(=O)N1CCc2ccc(-c3c(-c4ccc(C(=O)N5CCN(C)CC5)cc4)[nH]c4nccc(Cl)c34)cc21` [Example 66, 1-(6-(4-chloro-2-(4-(4-methylpiperazine-1-carbonyl)phenyl)-1H-pyrrolo[2,3-b]pyridin-3-yl)indolin-1-yl)prop-2-en-1-one], for which the GI50 in series [1] lay in the range of 500 to 1000 nM; in series [5] it was 100 to 500 nM. Besides, the “Stability in presence of mouse liver microsomes without cofactor NADPH [% remaining after 50 min]” value in series [2] is recorded as more than 99 % remaining after 50 min. Also, the IC50 in series [3] was not above 100 nM; in series [4] it was 1000 to 100000 nM; in series [6] it was not above 100 nM; in series [7], not above 100 nM; in series [8], 100 to 500 nM.

In the case of `C=CC(=O)N1CCc2ccc(-c3c(-c4ccc(OCCN(C)C)cc4)[nH]c4nccc(Cl)c34)cc21` [Example 67, 1-(6-(4-chloro-2-(4-(2-(dimethylamino)ethoxy)phenyl)-1H-pyrrolo[2,3-b]pyridin-3-yl)indolin-1-yl)prop-2-en-1-one], the GI50 in series [1] and in series [5] was 100 to 500 nM in each case. For the same compound, the “Stability in presence of mouse liver microsomes without cofactor NADPH [% remaining after 50 min]” value in series [2] is more than 99 % remaining after 50 min. Besides, the IC50 in series [3] was not above 100 nM; in series [4] it was 1000 to 100000 nM; in series [6], not above 100 nM; in series [7], not above 100 nM; in series [8] it was 100 to 500 nM.

`C=CC(=O)N1CCc2ccc(-c3c(-c4ccc(CN5CCOCC5)cc4)[nH]c4nccc(Cl)c34)cc21` [Example 68, 1-(6-(4-chloro-2-(4-(morpholinomethyl)phenyl)-1H-pyrrolo[2,3-b]pyridin-3-yl)indolin-1-yl)prop-2-en-1-one]: the GI50 is 1000 to 10000 nM in series [1] and 500 to 1000 nM in series [5]. Moreover, the “Stability in presence of mouse liver microsomes without cofactor NADPH [% remaining after 50 min]” value in series [2] is reported as more than 99 % remaining after 50 min. Moreover, the IC50 is not above 100 nM in series [3]; 1000 to 100000 nM in series [4]; not above 100 nM in series [6]; not above 100 nM in series [7]; 100 to 500 nM in series [8].

Consider `C=CC(=O)N1CCc2ccc(-c3c(-c4cccc(CN5CCN(C)CC5)c4)[nH]c4nccc(Cl)c34)cc21` [Example 69, 1-(6-(4-chloro-2-(3-((4-methylpiperazin-1-yl)methyl)phenyl)-1H-pyrrolo[2,3-b]pyridin-3-yl)indolin-1-yl)prop-2-en-1-one], for which the GI50 in series [1] and in series [5] was 100 to 500 nM each time. The “Stability in presence of mouse liver microsomes without cofactor NADPH [% remaining after 50 min]” value in series [2] is reported as 98 % remaining after 50 min. For the same compound, the IC50 in series [3] was not above 100 nM; in series [4] it was 500 to 1000 nM; in series [6] it was not above 100 nM; in series [7], not above 100 nM; in series [8] it was not above 100 nM.

Turning to `C=CC(=O)N1CCc2ccc(-c3c(-c4ccc(N5CCN(C)CC5)nc4)[nH]c4nccc(Cl)c34)cc21` [Example 70, 1-(6-(4-chloro-2-(6-(4-methylpiperazin-1-yl)pyridin-3-yl)-1H-pyrrolo[2,3-b]pyridin-3-yl)indolin-1-yl)prop-2-en-1-one], the values for the GI50 in series [1] and in series [5] were 500 to 1000 nM and 100 to 500 nM, respectively. Moreover, the “Stability in presence of mouse liver microsomes without cofactor NADPH [% remaining after 50 min]” value in series [2] is on record as more than 99 % remaining after 50 min. Moreover, the IC50 was not above 100 nM in series [3]; 500 to 1000 nM in series [4]; not above 100 nM in series [6]; not above 100 nM in series [7]; 100 to 500 nM in series [8].

Consider `C=CC(=O)N1CCc2ccc(-c3c(-c4ccc(OCCCN(C)C)cc4)[nH]c4nccc(Cl)c34)cc21` [Example 71, 1-(6-(4-chloro-2-(4-(3-(dimethylamino)propoxy)phenyl)-1H-pyrrolo[2,3-b]pyridin-3-yl)indolin-1-yl)prop-2-en-1-one], for which the GI50 in series [1] lay in the range of 500 to 1000 nM; in series [5], 100 to 500 nM. Further, the “Stability in presence of mouse liver microsomes without cofactor NADPH [% remaining after 50 min]” value in series [2] is more than 99 % remaining after 50 min. Moreover, the IC50 in series [3] was not above 100 nM; in series [4] it was 500 to 1000 nM; in series [6] it was not above 100 nM; in series [7] it was not above 100 nM; in series [8], 100 to 500 nM.

`C=CC(=O)Nc1cc(-c2c(-c3ccc(N4CCN(C(C)=O)CC4)cc3)[nH]c3nccc(OC)c23)ccc1C` [Example 74, N-(5-(2-(4-(4-acetylpiperazin-1-yl)phenyl)-4-methoxy-1H-pyrrolo[2,3-b]pyridin-3-yl)-2-methylphenyl)acrylamide]: the GI50 in series [1] was in the range of 100 to 500 nM; in series [5], 500 to 1000 nM. In addition, the “Stability in presence of mouse liver microsomes without cofactor NADPH [% remaining after 50 min]” value in series [2] was determined as 90 % remaining after 50 min. In addition, the IC50 in series [3] was not above 100 nM; in series [4], 500 to 1000 nM; in series [6] it was not above 100 nM; in series [7], not above 100 nM; in series [8] it was not above 100 nM.

Consider `C=CC(=O)Nc1cc(-c2c(-c3ccnc(N4CCOCC4)c3)[nH]c3ncccc23)ccc1C` [Example 80, N-(2-methyl-5-(2-(2-morpholinopyridin-4-yl)-1H-pyrrolo[2,3-b]pyridin-3-yl)phenyl)acrylamide], for which the GI50 in series [1] and in series [5] was 1000 to 10000 nM in each case. In addition, in series [2], the “Stability in presence of mouse liver microsomes without cofactor NADPH [% remaining after 50 min]” value is reported as more than 99 % remaining after 50 min. Also, the IC50 in series [3] was 100 to 500 nM; in series [4], 1000 to 100000 nM; in series [6], not above 100 nM; in series [7], 500 to 1000 nM; in series [8] it was 100 to 500 nM.

Regarding `C=CC(=O)Nc1cc(-c2c(-c3cccc(CN4CCN(C(C)=O)CC4)c3)[nH]c3ncccc23)ccc1C` [Example 81, N-(5-(2-(3-((4-acetylpiperazin-1-yl)methyl)phenyl)-1H-pyrrolo[2,3-b]pyridin-3-yl)-2-methylphenyl)acrylamide], the GI50 in series [1] and in series [5] was 1000 to 10000 nM each time. Besides, the “Stability in presence of mouse liver microsomes without cofactor NADPH [% remaining after 50 min]” value in series [2] came to 80 % remaining after 50 min. Further, the IC50 in series [3] was 100 to 500 nM; in series [4], 1000 to 100000 nM; in series [6] it was not above 100 nM; in series [7], 1000 to 10000 nM; in series [8], 1000 to 100000 nM.

Turning to `C=CC(=O)Nc1cc(-c2c(-c3cccc(CN4CCOCC4)c3)[nH]c3ncccc23)ccc1C` [Example 82, N-(2-methyl-5-(2-(3-(morpholinomethyl)phenyl)-1H-pyrrolo[2,3-b]pyridin-3-yl)phenyl)acrylamide], the GI50 in series [1] and in series [5] was 1000 to 10000 nM in each case. Also, the “Stability in presence of mouse liver microsomes without cofactor NADPH [% remaining after 50 min]” value in series [2] is 97 % remaining after 50 min. Further, the IC50 in series [3] is 100 to 500 nM; in series [4] it was 1000 to 100000 nM; in series [6], not above 100 nM; in series [7], 1000 to 10000 nM; in series [8], 500 to 1000 nM.

For the compound `C=CC(=O)N1CCOc2ccc(-c3c(-c4ccc(N(C)CCN(C)C)cc4)[nH]c4nccc(Cl)c34)cc21` [Example 84, 1-(6-(4-chloro-2-(4-((2-(dimethylamino)ethyl)(methyl)amino)phenyl)-1H-pyrrolo[2,3-b]pyridin-3-yl)-2H-benzo[b][1,4]oxazin-4(3H)-yl)prop-2-en-1-one], the GI50 in series [1] and in series [5] was 100 to 500 nM each time. In series [2], the “Stability in presence of mouse liver microsomes without cofactor NADPH [% remaining after 50 min]” value turned out to be 94 % remaining after 50 min. Moreover, the IC50 is not above 100 nM in series [3]; 500 to 1000 nM in series [4]; not above 100 nM in series [6]; not above 100 nM in series [7]; 100 to 500 nM in series [8].

For the compound `C=CC(=O)N1CCOc2ccc(-c3c(-c4ccc(N5CCN(C(C)C)CC5)cc4)[nH]c4nccc(Cl)c34)cc21` [Example 85, 1-(6-(4-chloro-2-(4-(4-isopropylpiperazin-1-yl)phenyl)-1H-pyrrolo[2,3-b]pyridin-3-yl)-2H-benzo[b][1,4]oxazin-4(3H)-yl)prop-2-en-1-one], the GI50 in series [1] and in series [5] was 100 to 500 nM in each case. The “Stability in presence of mouse liver microsomes without cofactor NADPH [% remaining after 50 min]” value in series [2] is recorded as more than 99 % remaining after 50 min. Also, the IC50 in series [3] was not above 100 nM; in series [4], 500 to 1000 nM; in series [6], not above 100 nM; in series [7], not above 100 nM; in series [8], 100 to 500 nM.
